Measured values as given in patent US20070009437A1, “Intracellular trapping of radionuclides by enzyme-mediated reduction” (priority 2003, published 2007).

How the values were obtained:
[1] = test system: T. vaginalis (ATCC No. 30001); assay: Trapping of Tc99m pertechnetate in Trichomonas vaginalis (intracellular radioactivity, gamma counter); format: cell-based; settings: 2 μCi, 37° C., 2×10^6 cells per tube, washed pellet
Description: T. vaginalis (ATCC No. 30001) was cultured in ATCC LYI entamoeba medium (ATCC No. PRA-2154) at 37° C. in test tubes to a titer of 2×10^6 cells per tube. Three test tubes were included in each group. T. vaginalis cells were incubated at 37° C. for a period of time after inoculation of 2 μci of Technetium 99m pertechnetate in each test tube. At end of incubation, the cells were harvested by centrifugation at […], for 10 minutes. The cellular pellet was washed three times with PBS to remove extra-cellular radioactivity. Intracellular radioactivity of the cells was counted with a gamma counter.

[2] = test system: DsbC-HydB fusion (pETDuet/DsbC-HydB alone) in E. coli BL21(DE3) Star; assay: Tc99m O4- reduction assay, bacteria with pETDuet/DsbC-HydB alone; format: cell-based, Desulfovibrio desulfuricans; settings: for Counts Per Minute, cell pellet, FB: 15 mCi, aerobic
Description: (§1) Bacterial expression vectors were designed following standard molecular biology techniques. D. desulfuricans hydrogenase genes, Hyd A and Hyd B were PCR amplified using primers incorporated with unique restriction sites at the ends. The genes were inserted into pET-Duet1 (Novagen) vector under T7 RNA polymerase driven promoter through sequential restriction digestion and ligation. Periplasmic signal sequences were extracted from vectors pET-39b and pET-40b (Novagen) and ligated in-frame with start codon deficient Hydrogenase genes. Mammalian expression vectors were designed with mitochondrial signal sequences from pCMV/myc/mito, fused in frame by PCR amplification and ligation with both HydA and HydB genes. Additionally, the myc epitope was added in-frame at the C-terminus to facilitate subcellular localization and immunoprecipations.
(§2) E. coli BL21(DE3) Star (Invitrogen) was transformed with various constructs and grown on the appropriate selective media agars. In case of periplasmic fusion hydrogenases, dual co-transformation was accomplished using antibiotic selection markers, ampicillin and chloramphenicol. Transformed cells were grown at 37° C. in a standard laboratory shaker under aerobic conditions to an optical density at 600 nm (O.D.600) of 0.6 and then induced with 1 mM IPTG under a standard T7 promoter induction protocol. One ml aliquots of cells were collected at 0, 1, 2, and 3 hour time points following induction and mRNA was extracted using a bacterial mRNA extraction mini kit (Qiagen). 100 ng of the mRNA samples was DNAse treated (Invitrogen) according to the manufacturer's protocol. RNA quality was then analyzed using an Agilent 2100 Bioanalyzer, prokaryotic total RNA nano-chip. RT-PCR reactions were performed using the internal specific primers for HydA, Forward: 5′-[…] (SEQ ID NO:8); Reverse: 5′-[…] (SEQ ID NO:9) and Hyd B, Forward: 5′-[…] (SEQ ID NO:10), Reverse 5′-[…] (SEQ ID NO:11) and one step RT-PCR kit (Qiagen).
(§3) Tc99m O4—reduction assays were performed as follows: Bacterial cultures were grown to an O.D.600 of 0.6 in a simple rotary shaker under aerobic conditions. HydA and HydB genes were induced with 1 mM IPTG in the presence of 15 mCi of 99mTc Pertechnetate and ten ml aliquots of bacterial cultures were collected at 0, 1, 2, and 3 hr time points. The cells were spun down at 3500 rpm for 15 min, washed twice with 5 ml phosphate buffered saline (PBS) and the supernatant was collected and saved for later analysis. Control bacteria transformed with Duet vectors only were treated as controls. Total counts in the total cell pellet, 100 μl of media supernatant, and 1 ml of each wash, were then assayed using a gamma counter. Ten microliters of 99mTc pertechnetate was assayed to provide internal control between experiments.
(§4) In FIG. 12, the amount of radioactivity recorded in counts per minute was divided by the total number of counts expected per 10 ml of culture. The experimental values were determined by subtracting the control bacterial normalized CPM from the normalized CPM from the hydrogenase vector(s) transformed bacteria. The values obtained were therefore normalized counts per minute for the different cell lines.
(§5) However, this increase was negligible when compared to cells containing both HydA and HydB in separate (individual) Dsb fusion vector constructs.

[3] = test system: D. desulfuricans hydrogenase HydA/HydB (pETDuet/HydA/HydB) in E. coli BL21(DE3) Star; assay: Tc99m O4- reduction assay, bacteria with pETDuet/HydA/HydB; format: cell-based, Desulfovibrio desulfuricans; settings: for Counts Per Minute, cell pellet, HYDA/B: 15 mCi, aerobic
Description: as §1, §2, §3, §4

[4] = test system: E. coli BL21(DE3) Star transformed with pET-Duet + pACYCDuet (control); assay: Tc99m O4- reduction assay, control bacteria with Duet vectors only; format: cell-based, Escherichia coli; settings: 15 mCi, aerobic
Description: as §2, §3, §4

[5] = test system: DsbA-HydA fusion (pACYC-DsbA-HydA alone) in E. coli BL21(DE3) Star; assay: Tc99m O4- reduction assay, bacteria with pACYC-DsbA-HydA alone; format: cell-based, Desulfovibrio desulfuricans; settings: 15 mCi, aerobic
Description: as §1, §2
Tc99m O4—reduction assays were performed as follows: Bacterial cultures were grown to an O.D.600 of 0.6 in a simple rotary shaker under aerobic conditions. HydA and HydB genes were induced with 1 mM IPTG in the presence of 15 mCi of 99mTc Pertechnetate and ten ml aliquots of bacterial cultures were collected at 0, 1, 2, and 3 hr time points. The cells were spun down at 3500 rpm for 15 min, washed twice with 5 ml phosphate buffered saline (PBS) and the supernatant was collected and saved for later analysis. […]
In FIG. 12, the amount of radioactivity recorded in counts per minute was divided by the total number of counts expected per 10 ml of culture. The experimental values were determined by subtracting the control bacterial normalized CPM from the normalized CPM from the hydrogenase vector(s) transformed bacteria. […]

[6] = test system: DsbA-HydA + DsbC-HydB (pACYC-DsbA-HydA + pETDuet/DsbC-HydB) in E. coli BL21(DE3) Star; assay: Tc99m O4- reduction assay, bacteria with both periplasmic Dsb fusion vectors; format: cell-based, Desulfovibrio desulfuricans; settings: for Counts Per Minute, cell pellet, DSB FUSIONS: 15 mCi, aerobic
Description: as §1, §2, §3, §4, §5

## [O]=[99Tc](=[O])(=[O])[O-] [Technetium 99m pertechnetate]
[1]; incubation 30 minutes
  RADIOACTIVITY (dpm) in T. vaginalis: 24904 dpm
[1]; incubation 45 minutes
  RADIOACTIVITY (dpm) in T. vaginalis: 45127 dpm
[1]; incubation 12 hours
  RADIOACTIVITY (dpm) in T. vaginalis: 1915843 dpm
[2]; 0 hr after 1 mM IPTG induction
  Counts Per Minute, cell pellet, FB: 4643 cpm
[2]; 1 hr after 1 mM IPTG induction
  Counts Per Minute, cell pellet, FB: 40064 cpm
[2]; 2 hr after 1 mM IPTG induction
  Counts Per Minute, cell pellet, FB: 55201 cpm
[2]; 3 hr after 1 mM IPTG induction
  Counts Per Minute, cell pellet, FB: 77462 cpm
[2]; Hyd B-Dsb fusion alone vs both fusion hydrogenase products together
  entrapment of radionuclide by cells: higher than that of both fusion hydrogenase products together
[3]; 0 hr after 1 mM IPTG induction
  Counts Per Minute, cell pellet, HYDA/B: 2074 cpm
[3]; 1 hr after 1 mM IPTG induction
  Counts Per Minute, cell pellet, HYDA/B: 5543 cpm
[3]; 2 hr after 1 mM IPTG induction
  Counts Per Minute, cell pellet, HYDA/B: 8031 cpm
[3]; 3 hr after 1 mM IPTG induction
  Counts Per Minute, cell pellet, HYDA/B: 12339 cpm
[3]; bacteria overexpressing HydA and HydB genes
  trapping in vitro as compared to control cells: significantly higher trapping
[3]; pETDuet1/HydA/HydB vector vs pET-Duet+PAcYCDuet vector
  radioactivity within cells relative to control cells: noticeable increase in radioactivity
[4]; 0 hr after 1 mM IPTG induction
  Counts Per Minute, cell pellet, D + P (control): 2777 cpm
[4]; 1 hr after 1 mM IPTG induction
  Counts Per Minute, cell pellet, D + P (control): 6939 cpm
[4]; 2 hr after 1 mM IPTG induction
  Counts Per Minute, cell pellet, D + P (control): 10045 cpm
[4]; 3 hr after 1 mM IPTG induction
  Counts Per Minute, cell pellet, D + P (control): 11944 cpm
[5]; 0 hr after 1 mM IPTG induction
  Counts Per Minute, cell pellet, FA: 7074 cpm
[5]; 1 hr after 1 mM IPTG induction
  Counts Per Minute, cell pellet, FA: 8503 cpm
[5]; 2 hr after 1 mM IPTG induction
  Counts Per Minute, cell pellet, FA: 15323 cpm
[5]; 3 hr after 1 mM IPTG induction
  Counts Per Minute, cell pellet, FA: 23935 cpm
[6]; 0 hr after 1 mM IPTG induction
  Counts Per Minute, cell pellet, DSB FUSIONS: 4185 cpm
[6]; 1 hr after 1 mM IPTG induction
  Counts Per Minute, cell pellet, DSB FUSIONS: 38129 cpm
[6]; 2 hr after 1 mM IPTG induction
  Counts Per Minute, cell pellet, DSB FUSIONS: 80021 cpm
[6]; 3 hr after 1 mM IPTG induction
  Counts Per Minute, cell pellet, DSB FUSIONS: 56611 cpm
[6]; DsbA and DsbC ligated in fusion to Hyd A and Hyd B
  99mTc association with the bacteria: increased 99mTc association with the bacteria
